From patent US7947718B2, “Isoxazole compounds as histamine H3 modulators” (Janssen Pharmaceutica NV, priority 2004, dated 2011) come the findings set out here.

For this test, the target named is T1, human histamine H3 receptor (Homo sapiens, UniProt Q9Y5N1).
T1 construct: expressed in transfected cells; membranes were used
The test is described as follows: [3H]-N-Methylhistamine binding. The note with it: membranes of H3 receptor-expressing SK-N-MC cells; 0.8 nM [3H]-N-methylhistamine, 60 min at 25° C. On the procedure:
Cells were grown to about 70% to 80% confluence and removed from the plate with trypsin and pelleted in a clinical centrifuge. […] One μg supercoiled H3 receptor cDNA was added to the cells and mixed gently. The voltage for the electroporation was set at 0.25 kV and the capacitance was set at 960 μF. After electroporation the cells were diluted with 10 mL of complete media and were plated onto four 10 cm dishes at the following ratios: 1:20, 1:10, 1:5, and 1:2. […] Colonies that survived selection were grown and tested. SK-N-MC cells were used because they give efficient coupling for inhibition of adenylate cyclase. The clones that gave the most robust inhibition of adenylate cyclase in response to histamine were used for further study.
Cell pellets from histamine H3 receptor-expressing SK-N-MC cells were homogenized in 50 mM TrisHCl/0.5 mM EDTA. Supernatants from an 800 g spin were collected and were recentrifuged at 30,000 g for 30 min. Pellets were re-homogenized in 50 mM Tris/5 mM EDTA (pH 7.4). Membranes were incubated with 0.8 nM [^3H]-N-methylhistamine plus/minus test compounds for 60 min at 25° C. and were harvested by rapid filtration over GF/C glass fiber filters (pretreated with 0.3% polyethylenimine) followed by four washes with buffer. Filters were added to 5 mL of scintillation cocktail, and the signal was then counted on a liquid scintillation counter.

T1 sequence (Q9Y5N1 whole entry): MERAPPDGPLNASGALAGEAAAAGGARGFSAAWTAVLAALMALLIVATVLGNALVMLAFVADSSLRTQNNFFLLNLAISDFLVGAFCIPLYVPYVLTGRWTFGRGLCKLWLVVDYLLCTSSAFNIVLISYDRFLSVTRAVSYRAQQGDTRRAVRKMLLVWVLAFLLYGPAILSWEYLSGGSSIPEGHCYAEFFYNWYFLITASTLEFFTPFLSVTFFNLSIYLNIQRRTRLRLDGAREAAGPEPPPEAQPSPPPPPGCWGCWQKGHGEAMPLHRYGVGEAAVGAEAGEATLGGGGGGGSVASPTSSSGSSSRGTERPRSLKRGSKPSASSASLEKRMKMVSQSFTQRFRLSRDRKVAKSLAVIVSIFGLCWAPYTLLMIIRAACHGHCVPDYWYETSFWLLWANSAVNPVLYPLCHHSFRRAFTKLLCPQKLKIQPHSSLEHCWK

As usually defined, the Ki is the dissociation constant of the complex between target and ligand, obtained from inhibition or displacement. Read a low Ki as tighter binding. In turn, `C(#Cc1cccc(CN2CCCCC2)n1)CCN1CCCCC1` [Example 20, 2-(4-Piperidin-1-yl-but-1-ynyl)-6-piperidin-1-ylmethyl-pyridine] showed a Ki of 8 nM. To `CC(C)N1CCN(C(=O)c2ccc(N3CCN(C)CC3)nc2)CC1` [Example 15, (4-Isopropyl-piperazin-1-yl)-[6-(4-methyl-piperazin-1-yl)-pyridin-3-yl]-methanone] belongs 3 nM; to `CC(C)N1CCN(C(=O)c2ccc(NCCN3CCCCC3)nc2)CC1` [Example 9, (4-Isopropyl-piperazin-1-yl)-[6-(2-piperidin-1-yl-ethylamino)-pyridin-3-yl]-methanone], 2 nM. As for `CC(C)N1CCN(C(=O)c2ccc(NCCc3ccccn3)nc2)CC1` [Example 11, (4-Isopropyl-piperazin-1-yl)-[6-(2-pyridin-2-yl-ethylamino)-pyridin-3-yl]-methanone], the Ki amounted to 84 nM. In turn, `CCN(CC)CCN(C)c1ccc(C(=O)N2CCN(C(C)C)CC2)cn1` [Example 12, {6-[(2-Diethylamino-ethyl)-methyl-amino]-pyridin-3-yl}-(4-isopropyl-piperazin-1-yl)-methanone] had a Ki of 3 nM. In the case of `COCCNCc1cccc(C#CCCN2CCCCC2)n1` [Example 22, (2-Methoxy-ethyl)-[6-(4-piperidin-1-yl-but-1-ynyl)-pyridin-2-ylmethyl]-amine], the Ki came to 29 nM. As to `CC(C)N1CCN(C(=O)c2cccnc2NCCN2CCCCC2)CC1` [Example 17, (4-Isopropyl-piperazin-1-yl)-[2-(2-piperidin-1-yl-ethylamino)-pyridin-3-yl]-methanone], the Ki worked out at 141 nM.

The compound `C(#Cc1cccc(CN2CCOCC2)n1)CCN1CCCCC1` [Example 21, 4-[6-(4-Piperidin-1-yl-but-1-ynyl)-pyridin-2-ylmethyl]-morpholine] gave a Ki of 38 nM. As to `CC(C)N1CCN(C(=O)c2ccnc(NCCN3CCCCC3)c2)CC1` [Example 16, (4-Isopropyl-piperazin-1-yl)-[2-(2-piperidin-1-yl-ethylamino)-pyridin-4-yl]-methanone], the Ki was 6 nM. This Ki lies about 6.3-fold lower than the previous one. In turn, `CC(C)N1CCN(C(=O)c2ccc(N3CCN(C(C)C)CC3)nc2)CC1` [Example 13, (4-Isopropyl-piperazin-1-yl)-[6-(4-isopropyl-piperazin-1-yl)-pyridin-3-yl]-methanone] displayed a Ki of 4 nM. This Ki lies about 1.5-fold lower than the previous one. To `C(#Cc1ccc(CN2CCCCC2)cn1)CCN1CCCCC1` [Example 8, 2-(4-Piperidin-1-yl-but-1-ynyl)-5-piperidin-1-ylmethyl-pyridine] belongs 5 nM; to `C(#Cc1cncc(CN2CCCCC2)c1)CCN1CCCCC1` [Example 18, 3-(4-Piperidin-1-yl-but-1-ynyl)-5-piperidin-1-ylmethyl-pyridine], 2 nM. Turning to `CCOC(=O)N1CCN(c2ccc(C(=O)N3CCN(C(C)C)CC3)cn2)CC1` [Example 14, 4-[5-(4-Isopropyl-piperazine-1-carbonyl)-pyridin-2-yl]-piperazine-1-carboxylic acid ethyl ester], the Ki was 79 nM. This Ki lies about 40-fold higher than the previous one. The compound `C(#Cc1cncc(CN2CCOCC2)c1)CCN1CCCCC1` [Example 19, 4-[5-(4-Piperidin-1-yl-but-1-ynyl)-pyridin-3-ylmethyl]-morpholine] returned a Ki of 15 nM. Regarding `CC(C)N1CCN(C(=O)c2ccc(NCCN3CCOCC3)nc2)CC1` [Example 10, (4-Isopropyl-piperazin-1-yl)-[6-(2-morpholin-4-yl-ethylamino)-pyridin-3-yl]-methanone], the affinity, expressed as Ki, was 14 nM.
